Like-named read-outs stand apart in the source and are kept apart here.
Assays:
NMDAR2A = target: T1, NMDAR2A (Homo sapiens, UniProt Q12879); experiment: NMDAR agonist assay, [3H]MK-801 binding, NMDAR2A expressing HEK cell membranes; format: biochemical; set-up: key to NMDAR2A B: log EC50: 0=−; ≥1×10^−9 M (e.g., −8)=+; <1×10^−9 M (e.g., −10)=++; conditions: 50 μM glutamate; for EC50: read-out: NMDAR2A B: log EC50 (converted); for Emax: 0.25 h, read-out: NMDAR2A A: % maximal [3H]MK-801 binding relative to 1 mM glycine
T1 construct: expressed in transfected cells; host or cells: HEK cells (membrane extract)
T1 sequence (Q12879 23-1464, species assumed, other chains not shown): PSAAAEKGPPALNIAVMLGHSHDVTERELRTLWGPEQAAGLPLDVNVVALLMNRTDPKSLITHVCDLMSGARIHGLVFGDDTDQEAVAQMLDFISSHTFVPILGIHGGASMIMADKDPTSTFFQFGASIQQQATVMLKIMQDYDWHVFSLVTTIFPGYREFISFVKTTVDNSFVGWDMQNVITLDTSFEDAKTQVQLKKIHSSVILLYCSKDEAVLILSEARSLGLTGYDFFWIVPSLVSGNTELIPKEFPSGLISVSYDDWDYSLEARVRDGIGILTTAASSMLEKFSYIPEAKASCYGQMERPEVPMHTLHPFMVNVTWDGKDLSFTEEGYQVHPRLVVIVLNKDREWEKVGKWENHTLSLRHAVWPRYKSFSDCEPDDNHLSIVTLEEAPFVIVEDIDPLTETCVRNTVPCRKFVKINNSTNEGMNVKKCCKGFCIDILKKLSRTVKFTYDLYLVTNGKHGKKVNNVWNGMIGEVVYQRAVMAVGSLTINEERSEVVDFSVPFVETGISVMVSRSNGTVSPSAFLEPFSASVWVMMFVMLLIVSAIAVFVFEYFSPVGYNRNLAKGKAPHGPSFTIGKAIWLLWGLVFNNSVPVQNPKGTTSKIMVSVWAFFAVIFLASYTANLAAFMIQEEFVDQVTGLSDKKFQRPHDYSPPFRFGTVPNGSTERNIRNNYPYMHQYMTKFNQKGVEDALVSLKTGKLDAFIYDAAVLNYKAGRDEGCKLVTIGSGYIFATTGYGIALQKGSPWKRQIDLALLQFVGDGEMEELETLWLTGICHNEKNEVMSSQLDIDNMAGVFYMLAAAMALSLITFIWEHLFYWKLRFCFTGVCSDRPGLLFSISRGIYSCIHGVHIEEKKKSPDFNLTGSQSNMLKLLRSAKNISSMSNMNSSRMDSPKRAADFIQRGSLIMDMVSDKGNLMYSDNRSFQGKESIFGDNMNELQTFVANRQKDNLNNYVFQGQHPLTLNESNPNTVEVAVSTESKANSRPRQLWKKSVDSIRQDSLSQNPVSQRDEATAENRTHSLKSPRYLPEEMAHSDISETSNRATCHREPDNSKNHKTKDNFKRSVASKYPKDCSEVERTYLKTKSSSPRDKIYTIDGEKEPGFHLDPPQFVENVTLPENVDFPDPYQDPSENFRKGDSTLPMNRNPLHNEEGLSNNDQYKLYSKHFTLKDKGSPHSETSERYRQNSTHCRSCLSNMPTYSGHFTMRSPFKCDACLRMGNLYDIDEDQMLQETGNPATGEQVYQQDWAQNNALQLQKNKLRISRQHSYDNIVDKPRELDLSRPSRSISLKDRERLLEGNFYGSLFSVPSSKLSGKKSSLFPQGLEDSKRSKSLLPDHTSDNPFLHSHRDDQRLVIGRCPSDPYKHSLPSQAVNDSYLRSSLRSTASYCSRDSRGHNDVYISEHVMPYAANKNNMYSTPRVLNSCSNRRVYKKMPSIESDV
Summary of the method: (§1)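 Membranes from HEK cells (300 μg protein) preincubated 15 min with 50 μM glutamate plus compound (1×10^−15–1×10^−7 M) or 1 mM glycine, then with 0.3 μCi [3H]MK-801 for 15 min at 25° C. (nonequilibrium); filter-bound DPM, baseline-subtracted, expressed as % of 1 mM glycine; EC50 and % maximum from three-parameter fit.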

NMDAR2B = target: T2, NMDAR2B (Homo sapiens, UniProt Q13224); experiment: NMDAR agonist assay, [3H]MK-801 binding, NMDAR2B expressing HEK cell membranes; format: biochemical; conditions: 50 μM glutamate; for EC50: read-out: NMDAR2B B: log EC50 (converted); for Emax: read-out: NMDAR2B A: % maximal [3H]MK-801 binding relative to 1 mM glycine
T2 construct: expressed in transfected cells; host or cells: HEK cells (membrane extract)
T2 sequence (Q13224 27-1484, species assumed, other chains not shown): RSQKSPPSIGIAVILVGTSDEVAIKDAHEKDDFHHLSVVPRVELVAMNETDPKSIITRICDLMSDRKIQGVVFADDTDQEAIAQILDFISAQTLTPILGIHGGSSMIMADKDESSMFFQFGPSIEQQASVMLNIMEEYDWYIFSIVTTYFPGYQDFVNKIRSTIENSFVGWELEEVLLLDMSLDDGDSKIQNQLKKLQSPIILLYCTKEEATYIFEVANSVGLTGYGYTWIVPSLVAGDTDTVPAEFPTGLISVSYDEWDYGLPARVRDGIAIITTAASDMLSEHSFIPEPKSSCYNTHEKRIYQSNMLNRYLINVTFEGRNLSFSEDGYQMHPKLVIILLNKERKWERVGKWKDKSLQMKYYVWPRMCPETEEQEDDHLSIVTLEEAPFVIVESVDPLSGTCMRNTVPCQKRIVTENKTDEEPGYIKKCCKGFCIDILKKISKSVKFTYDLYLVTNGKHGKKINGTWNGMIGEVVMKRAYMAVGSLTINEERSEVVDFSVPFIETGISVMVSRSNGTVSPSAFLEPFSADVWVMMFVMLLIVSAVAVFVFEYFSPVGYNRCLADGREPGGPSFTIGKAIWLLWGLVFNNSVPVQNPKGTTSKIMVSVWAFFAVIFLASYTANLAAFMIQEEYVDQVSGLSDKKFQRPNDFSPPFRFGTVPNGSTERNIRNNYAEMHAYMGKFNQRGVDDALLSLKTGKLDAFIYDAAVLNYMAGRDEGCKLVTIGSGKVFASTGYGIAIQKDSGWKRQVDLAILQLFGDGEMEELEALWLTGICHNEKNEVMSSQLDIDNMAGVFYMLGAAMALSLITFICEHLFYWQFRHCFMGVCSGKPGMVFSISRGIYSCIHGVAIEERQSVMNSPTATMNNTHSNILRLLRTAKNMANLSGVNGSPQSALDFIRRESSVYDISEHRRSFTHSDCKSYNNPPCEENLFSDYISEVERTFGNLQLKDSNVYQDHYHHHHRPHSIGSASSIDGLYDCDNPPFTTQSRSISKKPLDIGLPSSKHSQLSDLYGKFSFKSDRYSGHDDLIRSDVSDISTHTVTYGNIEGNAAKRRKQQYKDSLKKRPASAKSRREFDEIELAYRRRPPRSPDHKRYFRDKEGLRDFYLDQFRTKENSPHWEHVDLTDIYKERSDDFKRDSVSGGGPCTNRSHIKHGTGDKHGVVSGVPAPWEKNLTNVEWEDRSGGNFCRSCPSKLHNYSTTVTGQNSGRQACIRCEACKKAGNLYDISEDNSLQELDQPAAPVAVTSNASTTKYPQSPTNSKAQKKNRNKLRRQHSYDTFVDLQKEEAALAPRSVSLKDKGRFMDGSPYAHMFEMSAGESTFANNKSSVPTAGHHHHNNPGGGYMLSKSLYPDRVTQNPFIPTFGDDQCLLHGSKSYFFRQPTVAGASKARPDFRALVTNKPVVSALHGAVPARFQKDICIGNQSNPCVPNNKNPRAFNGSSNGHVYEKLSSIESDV
Summary of the method: as §1

NMDAR2C = target: T3, NMDAR2C (Homo sapiens, UniProt Q14957); experiment: NMDAR agonist assay, [3H]MK-801 binding, NMDAR2C expressing HEK cell membranes; format: biochemical; conditions: 50 μM glutamate; for EC50: read-out: NMDAR2C B: log EC50 (converted)
T3 construct: expressed in transfected cells; host or cells: HEK cells (membrane extract)
Protocol: (§2) Assays were conducted as described by Moskal et al., “GLYX-13: a monoclonal antibody-derived peptide that acts as an N-methyl-D-aspartate receptor modulator,” Neuropharmacology, 49, 1077-87, 2005. These studies were designed to determine if the test compounds act to facilitate NMDAR activation in NMDAR2A, NMDAR2B, NMDAR2C or NMDAR2D expressing HEK cell membranes as measured by increases in [^3H]MK-801 binding.
(§3) In the assay, 300 μg of NMDAR expressing HEK cell membrane extract protein was preincubated for 15 minutes at […] in the presence of saturating concentrations of glutamate (50 μM) and varying concentrations of test compound (1×10^−15M-1×10^−7M), or 1 mM glycine. Following the addition of 0.3 μCi of [3H]MK-801 (22.5 Ci/mmol), reactions were again incubated for 15 minutes at 25° C. (nonequilibrium conditions). Bound and free [3H]MK-801 were separated via rapid filtration using a Brandel apparatus.
(§4) In analyzing the data, the DPM (disintegrations per minute) of [3H]MK-801 remaining on the filter were measured for each concentration of test compound or for 1 mM glycine. The DPM values for each concentration of a ligand (N=2) were averaged. The baseline value was determined from the best fit curve of the DPM values modeled using the GraphPad program and the log(agonist) vs. response (three parameters) algorithm was then subtracted from all points in the dataset. The % maximal [^3H]MK-801 binding was then calculated relative to that of 1 mM glycine: all baseline subtracted DPM values were divided by the average value for 1 mM glycine. The EC50 and % maximal activity were then obtained from the best fit curve of the % maximal [3H]MK-801 binding data modelled using the GraphPad program and the log(agonist) vs. response (three parameters) algorithm.
(§5) The tables below summarize the results for the wild type […] NMDAR2A, NMDAR2B, NMDAR2C, and NMDAR2D, and whether the compound is not an agonist (−), is an agonist (+), or is a strong agonist (++), where column A is based on the % maximal [3H]MK-801 binding relative to 1 mM glycine (−=0; <100%=+; and >100%=++); and column B is based on log EC50 values (0=−; ≥1×10^−9 M (e.g., −8)=+; and <1×10^−9 M (e.g., −10)=++).

NMDAR2D [1] = target: T4, NMDAR2D (Homo sapiens, UniProt O15399); experiment: NMDAR agonist assay, [3H]MK-801 binding, NMDAR2D expressing HEK cell membranes; format: biochemical; conditions: 50 μM glutamate
T4 construct: expressed in transfected cells; host or cells: HEK cells (membrane extract)
T4 sequence (O15399 28-1336, species assumed, other chains not shown): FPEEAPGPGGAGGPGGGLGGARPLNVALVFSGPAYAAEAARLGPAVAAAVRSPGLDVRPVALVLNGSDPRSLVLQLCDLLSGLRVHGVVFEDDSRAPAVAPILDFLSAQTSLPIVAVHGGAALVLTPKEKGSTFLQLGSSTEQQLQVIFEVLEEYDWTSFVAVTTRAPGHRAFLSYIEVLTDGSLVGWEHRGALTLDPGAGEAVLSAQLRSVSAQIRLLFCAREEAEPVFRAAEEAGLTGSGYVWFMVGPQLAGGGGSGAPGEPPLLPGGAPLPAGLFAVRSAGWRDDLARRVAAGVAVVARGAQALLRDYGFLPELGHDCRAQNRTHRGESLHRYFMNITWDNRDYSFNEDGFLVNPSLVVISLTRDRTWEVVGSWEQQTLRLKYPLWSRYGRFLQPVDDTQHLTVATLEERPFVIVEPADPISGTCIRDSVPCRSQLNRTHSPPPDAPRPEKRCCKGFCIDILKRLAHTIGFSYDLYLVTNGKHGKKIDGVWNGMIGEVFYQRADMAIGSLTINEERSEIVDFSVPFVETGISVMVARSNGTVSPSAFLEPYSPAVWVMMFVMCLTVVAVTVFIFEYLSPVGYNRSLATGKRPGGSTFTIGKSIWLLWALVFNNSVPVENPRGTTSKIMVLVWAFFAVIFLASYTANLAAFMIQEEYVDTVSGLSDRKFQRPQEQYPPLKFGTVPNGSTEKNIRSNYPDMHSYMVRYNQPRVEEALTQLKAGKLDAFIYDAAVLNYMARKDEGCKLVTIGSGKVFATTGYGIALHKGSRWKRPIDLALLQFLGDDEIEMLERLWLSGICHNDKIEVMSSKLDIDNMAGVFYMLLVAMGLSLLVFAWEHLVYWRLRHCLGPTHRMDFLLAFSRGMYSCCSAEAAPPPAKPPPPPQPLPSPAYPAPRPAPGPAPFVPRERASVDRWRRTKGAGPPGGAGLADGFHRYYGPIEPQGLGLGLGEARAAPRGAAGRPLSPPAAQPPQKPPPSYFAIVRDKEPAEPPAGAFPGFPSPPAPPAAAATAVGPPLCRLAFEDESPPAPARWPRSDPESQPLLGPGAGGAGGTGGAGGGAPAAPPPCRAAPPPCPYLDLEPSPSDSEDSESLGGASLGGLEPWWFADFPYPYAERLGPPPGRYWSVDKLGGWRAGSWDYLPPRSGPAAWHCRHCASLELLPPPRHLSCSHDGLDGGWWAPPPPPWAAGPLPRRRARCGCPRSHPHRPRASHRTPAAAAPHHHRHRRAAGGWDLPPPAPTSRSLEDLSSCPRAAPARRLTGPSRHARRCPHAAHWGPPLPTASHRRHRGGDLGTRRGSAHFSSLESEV
Protocol: as §2, §3, §4, §5

[2] = IV pharmacokinetics in Sprague Dawley rats; format: in vivo; conditions: rat, 2 mg/kg, normal saline; for Vd: read-out: Vss
Protocol: Sprague Dawley rats were dosed intravenously using a normal saline formulation containing 2 mg/kg of the compounds identified in the below table. The table below summarizes the results of the IV pharmacokinetics.

[3] = Oral pharmacokinetics in Sprague Dawley rats (plasma, brain, CSF); format: in vivo; conditions: rat
Protocol: In another experiment, Sprague Dawley rats were dosed per os (oral gavage) using a normal saline formulation containing 10 mg/kg of the compounds identified in the table below. Plasma, brain, and CSF samples were analyzed at various time points over a 24 hour period. The table below summarizes the results of the oral pharmacokinetics, where the first three values (Tmax, Cmax and AUClast) are plasma values.

Sprague Dawley rats = experiment: Porsolt forced swim test; format: in vivo; conditions: 0.1 mg/kg
Protocol: A non-clinical in vivo pharmacology study (Porsolt assay) was performed to measure antidepressant-like effects. The study allowed for the evaluation of the effects of each compound on the Porsolt forced swim test as assessed by the rats' response (reduced floating time) during a 5-minute swimming test.
Male 2-3 month old Sprague Dawley rats were used (Harlan, Indianapolis, Ind.). Rats were housed in Lucite cages with aspen wood chip bedding, maintained on a 12:12 light:dark cycle (lights on at 5 AM), and given ad libitum access to Purina lab chow (USA) and tap water throughout the study.
The Porsolt forced swim test adapted for use in rats was performed as described by Burgdorf et al., (The long-lasting antidepressant effects of rapastinel (GLYX-13) are associated with a metaplasticity process in the medial prefrontal cortex and hippocampus. Neuroscience 308:202-211, 2015). Animals were placed in a 46 cm tall×20 cm in diameter clear glass tube filled to 30 cm with tap water (23±1° C.) for 15 min on the first day (habituation) and 5 min on the subsequent test day. Animals were tested 1 h or 24 h post-dosing with the test compounds or vehicle control (0.5% sodium carboxymethyl cellulose in 0.9% sterile saline). A subset of compounds tested at 1 h post-dosing was tested again 1 wk post-dosing. Animals received a 15 min habituation session 1 day before the first 5 min test. Water was changed after every other animal. Animals were videotaped, and floating time as defined as the minimal amount of effort required to keep the animals head above water was scored offline by a blinded experimenter with high inter-rater reliability (Pearson's r >0.9).

[4] = Microsomal stability (Human); format: in vitro ADME; conditions: after 60 minutes
Protocol: (§6) Microsomal stability of disclosed compounds was investigated. The following table indicates the percent of compound remaining after 60 minutes.

[5] = Microsomal stability (Rat); format: in vitro ADME; conditions: after 60 minutes
Protocol: as §6

Plasma stability (Human) = format: in vitro ADME; conditions: after 60 minutes
Protocol: (§7) Plasma stability of disclosed compounds was investigated. The following table indicates the percent of compound remaining after 60 minutes.

Plasma stability (Rat) = format: in vitro ADME; conditions: after 60 minutes
Protocol: as §7

NMDAR2D [6] = target: T5, NMDAR2D (Homo sapiens, UniProt O15399+Q05586); experiment: NMDAR agonist assay, [3H]MK-801 binding, NMDAR2D expressing HEK cell membranes; format: biochemical; conditions: 50 μM glutamate; read-out: NMDAR2D B: log EC50 (converted)
T5 construct: expressed in transfected cells; host or cells: HEK cells (membrane extract)
T5 sequence (O15399 28-1336, species assumed, other chains not shown): as above
Protocol: as §2, §3, §4, §5

[7] = Sprague-Dawley, in vivo, iv, read-out: Cmax
[8] = Sprague-Dawley, po, per os, 10 mg/kg, plasma, read-out: Tmax
[9] = Sprague-Dawley, plasma, po, 10 mg/kg, per os
[10] = Sprague-Dawley, plasma, po, 10 mg/kg, per os 10 mg/kg
[11] = Sprague-Dawley, plasma, po, 10 mg/kg, per os, 10 mg/kg, plasma, read-out: Cmax

Row | SMILES | EC50 (NMDAR2A) [nM] | EC50 (NMDAR2B) [nM] | EC50 (NMDAR2C) [nM] | NMDAR2C A: % maximal [3H]MK-801 binding relative to 1 mM glycine (NMDAR2C) | NMDAR2D A: % maximal [3H]MK-801 binding relative to 1 mM glycine (NMDAR2D [1]) | CSF Cmax ([3]; per os, 10 mg/kg) [ng/mL] | Brain Cmax ([3]; per os, 10 mg/kg) [ng/mL] | % reduction in float time (Sprague Dawley rats; 1 h post-dose) [%] | Significance vs. vehicle (Sprague Dawley rats; 1 h post-dose) | Microsomal (Human): percent of compound remaining [4] [%] | Microsomal (Rat): percent of compound remaining [5] [%] | Plasma (Human): percent of compound remaining (Plasma stability (Human)) [%] | Plasma (Rat): percent of compound remaining (Plasma stability (Rat)) [%] | Emax (NMDAR2A; relative to 1 mM glycine) [%] | EC50 (NMDAR2D [6]) [nM] | AUC(0-t) ([2]; Sprague-Dawley, in vivo, iv) [ng·h/mL] | clearance ([2]; Sprague-Dawley, in vivo, iv) [mL/min/kg] | half-life ([2]; Sprague-Dawley, in vivo, iv) [h] | Cmax [2, 7] [ng/mL] | Vd ([2]; Sprague-Dawley, in vivo, iv) [L/kg] | other results
1 | CC(C)(C)OC(=O)N1CCCC12CCCNC2=O (single isomer, unassigned) [EV-2, tert-butyl 6-oxo-1,7-diazaspiro[4.5]decane-1-carboxylate] | < 1 | < 1 | < 1 | + (<100%=+) | + (<100%=+) | 2324.1 | 1213 | 84 | Yes | 79 | 91 | 100 | 79 |  |  |  |  |  |  |  | NMDAR2A A: % maximal [3H]MK-801 binding relative to 1 mM glycine (NMDAR2A; relative to 1 mM glycine): + (<100%=+); NMDAR2B A: % maximal [3H]MK-801 binding relative to 1 mM glycine (NMDAR2B; relative to 1 mM glycine): + (<100%=+); EC50 (NMDAR2D [1]; read-out: NMDAR2D B: log EC50 (converted)): < 1 nM; AUClast [2]: 1138.1 ng·h/mL; Cl [2]: 28.4 mL/min/kg; Cmax [2]: 2608.4 ng/mL; T1/2 [2]: 0.41 h; Vss [2]: 0.88 L/kg; % F ([3]; per os 10 mg/kg): 63%; AUC(0-last) ([3]; per os, 10 mg/kg, plasma): 3567.9 ng·h/mL; Cmax ([3]; per os, 10 mg/kg, plasma): 4346 ng/mL; Tmax ([3]; per os, 10 mg/kg, plasma): 0.25 h; % reduction in float time (Sprague Dawley rats; 24 h post-dose): 76%; Significance vs. vehicle (Sprague Dawley rats; 24 h post-dose): Yes
2 | O=C1NCCCC[C@@]12CCCN2 [AU-2, (R)-1,7-diazaspiro[4.6]undecan-6-one] |  | < 1 | < 1 | + (<100%=+) | + (<100%=+) |  |  |  |  |  |  |  |  | 0 | < 1 |  |  |  |  |  | NMDAR2A B: log EC50 (NMDAR2A): −; Emax (NMDAR2B; relative to 1 mM glycine): < 100%
3 | O=C1NCCCC12CCCN2 (centres unmarked) [EU-2, 1,7-diazaspiro[4.5]decan-6-one] |  | < 1 | < 1 | + (<100%=+) | ++ (>100%=++) | 436.7 | 593.1 | 55 | Yes | 100 | 94 | 74 | 95 |  | < 1 | 4000 | 8.79 | 1.61 | 2140 | 0.94 | NMDAR2A B: log EC50 (NMDAR2A): −; Tmax [3, 8]: 1 h; AUC(0-t) [3, 9]: 4430 ng·h/mL; bioavailability [3, 10]: 100%; Cmax [3, 11]: 1860 ng/mL; % reduction in float time (Sprague Dawley rats; 1 wk post-dose): 46%; Significance vs. vehicle (Sprague Dawley rats; 1 wk post-dose): Yes
4 | CC(C)(C)OC(=O)N1CCCCCC12CNC2=O (single isomer, unassigned) [EI-1, tert-butyl 1-oxo-2,5-diazaspiro[3.6]decane-5-carboxylate] | < 1 |  |  |  | + (<100%=+) |  |  |  |  |  |  |  |  | < 100 | < 1 |  |  |  |  |  | 
5 | CC(=O)N1CCCC12CC=CCNC2=O (single isomer, unassigned) [GG-2, 1-acetyl-1,7-diazaspiro[4.6]undec-9-en-6-one] | < 1 | < 1 |  |  |  | 2271.94 | 1689.69 | 4 | No | 88 | 106 | 99 | 101 |  |  | 2550 | 13.1 | 0.54 | 3420 | 0.58 | Tmax [3, 8]: 0.25 h; AUC(0-t) [3, 9]: 19600 ng·h/mL; bioavailability [3, 10]: 100%; Cmax [3, 11]: 9200 ng/mL
6 | O=C1NCCCC[C@]12CCCN2 [AU-1, (S)-1,7-diazaspiro[4.6]undecan-6-one] | ≥ 1 | < 1 | < 1 | ++ (>100%=++) | 0% | 199.26 | 514.7 | 86 | Yes | 100 | 91 | 100 | 100 | < 100 |  | 1840 | 17.8 | 1.41 | 1620 | 1.63 | Emax (NMDAR2B; relative to 1 mM glycine): < 100%; Tmax [3, 8]: 1 h; AUC(0-t) [3, 9]: 6960 ng·h/mL; bioavailability [3, 10]: 75%; Cmax [3, 11]: 2440 ng/mL

— patent US20210047324A1 (Aptinyx Inc., priority 2018, published 2021)
